Where two headings read alike, the source gives them in different places.
What was measured:
[1] = molecular target: T1, SARS-CoV-2 Mpro (Severe acute respiratory syndrome coronavirus 2, UniProt P0DTD1); experiment: In vitro anti-novel coronavirus Mpro protease activity (fluorogenic substrate); type: biochemical; details: 25 nM Mpro, 25 μM substrate, 30 min pre-incubation
T1 construct: SARS-CoV-2 Mpro; purchased WuXi AppTec
Method: The compound was dissolved in DMSO, and diluted in a 3-fold gradient with Echo655 according to the concentration requirements to 10 concentration points, and duplicate tests were set at each concentration, and the diluted solution was added to a 384-well plate. Mpro protein and substrate were diluted with test buffer (100 mM NaCl, 20 mM Tris-HCl, 1 mM EDTA), and Mpro protein was added to the 384-well test plate, incubated with the compound for 30 min at room temperature, and then the substrate was added thereto, and the test concentration of Mpro protein was 25 nM, and the test concentration of substrate was 25 μM. After incubating for 60 minutes in a 30° C. constant temperature incubator, the fluorescence signal value of Ex/Em=340 nm/490 nm was detected by microplate reader. At the same time, the background well containing the substrate and compound but not containing Mpro protein was detected as control.
1) The inhibition rate was calculated using the following formula:
Inhibition rate %=[(compound-BGcompound)−(ZPE-BGZPE)]/[(HPE-BGHPE)−(ZPE-BGZPE)]*100%
ZPE: No-inhibition control, containing 25 nM Mpro protein+25 μM substrate, not containing compound
Compound: Test compound well, containing 25 nM Mpro protein+25 μM substrate+compound
BG: Background control well, containing 25 μM substrate+compound, not containing Mpro protein
2) Log (agonist) vs. response—variable slope nonlinear fitting analysis was carried out on the inhibition rate data (inhibition rate %) of the compound by using GraphPad Prism software, and the IC50 value of the compound was obtained.

[2] = Pharmacokinetics test of mice; type: in vivo, C57BL/6J male mice; details: mouse, plasma
Method: In this study, C57BL/6J male mice were selected as test animals, and LC/MS/MS method was used to quantitatively measure the plasma concentration of the test compound 11 at different time points after oral administration and injection in mice, so as to evaluate the pharmacokinetic characteristics of the test drug in mice.
The test compound dissolved in 30% PEG400+70% normal saline was administered to mice (overnight fasting, 6-8 weeks old) by intragastric administration. 25 μL of blood was collected at 0.083, 0.25, 0.5, 1, 2, 4, 8, 12 and 24 hours after administration, respectively, and placed in commercial anticoagulation tubes pre-added with EDTA-K2, centrifuged at 4° C., 3200 g for 10 min to obtain plasma, and after the plasma sample was treated, the plasma concentration was determined by LC-MS/MS method.

[3] = Pharmacokinetic test in combination with Ritonavir in mice; type: in vivo, C57BL/6J male mice; details: mouse, plasma, po, 10 mg/kg, p.o. 10 mpk
Method: In this study, C57BL/6J male mice were selected as test animals, and the LC/MS/MS method was used to quantitatively measure the plasma concentrations of mice in combination with Ritonavir at different time points, so as to evaluate the pharmacokinetic characteristics of the test drug in mice.
Firstly, 10 mpk of Ritonavir was administered to mice by intragastric administration at −12 h and 0 h, and then the test compound was dissolved in 30% PEG400+70% normal saline solution and administered to mice by intragastric administration (overnight fasting, 6 to 8 weeks old). 25 μL of blood was collected at 0.083, 0.25, 0.5, 1, 2, 4, 8, 12 and 24 hours after administration to animals, placed in a commercial anticoagulant tube pre-added with EDTA-K2, and centrifuged at 4° C., 3200 g for 10 min to obtain plasma. After the plasma samples were treated, the plasma concentration was determined by LC-MS/MS method.

[4] = Tissue distribution test in rats (after Ritonavir); type: in vivo, SD male rats; details: rat, po, 30 mg/kg, with Ritonavir
Method: In this study, SD male rats were selected as test animals, and the drug concentrations of test compounds in plasma and lungs of rats at different time points were quantitatively measured by LC/MS/MS method to evaluate the pharmacokinetic characteristics of test drugs in rats.
Firstly, 10 mpk of Ritonavir was administered to rats by intragastric administration at −12 h and 0 h, and 30 mpk of the test compound was dissolved in 10% Solutol+30% PEG 400+2% Tween 80+H2O 58% solution and administered to rats by intragastric administration (overnight fasting). 40 μL of blood was collected from the saphenous vein of rats at 0.25, 1 and 6 hours after administration, placed in an anticoagulant tube added with EDTA-K2, centrifuged at 4° C., 3200 g for 10 min to obtain plasma, and some animals were killed at 0.25, 1 and 6 hours respectively to collect lung tissue. After the plasma samples were treated, the plasma concentration was determined by LC-MS/MS method.

With `CC(C)(C)[C@H](NC(=O)C(F)(F)F)C(=O)N1C[C@@H]2C3C=CC(C3)[C@@H]2[C@H]1C(=O)N[C@H](C#N)C[C@@H]1CCNC1=O` (single isomer, unassigned) [Compound 28A] as the compound, how does the IC50 [1] read?
Its IC50 is 2.6 nM.

Which IC50 [1] does the source give for `CC(C)(C)[C@H](NC(=O)C(F)(F)F)C(=O)N1C[C@@H]2C3C=CC(C3)[C@@H]2[C@H]1C(=O)N[C@H](C#N)C[C@@H]1CCNC1=O` (single isomer, unassigned) [Compound 28] here?
The IC50 was 31 nM.

With `CC(C)(C)[C@H](NC(=O)C(F)(F)F)C(=O)N1C[C@@H]2C3CCC(C3)[C@@H]2[C@H]1C(=O)N[C@H](C#N)C[C@@H]1CCNC1=O` (single isomer, unassigned) [Compound 29-1] as the compound, how does the IC50 [1] read?
The IC50 was 264 nM.

Which IC50 [1] does the source give for `CC(C)(C)[C@H](NC(=O)C(F)(F)F)C(=O)N1C[C@@H]2C3CCC(C3)[C@@H]2[C@H]1C(=O)N[C@H](C#N)C[C@@H]1CCNC1=O` (single isomer, unassigned) [Compound 29-2] here?
Its IC50 is 11 nM.

With `N#C[C@H](C[C@@H]1CCNC1=O)NC(=O)[C@@H]1[C@H]2CC[C@H](C2)N1C(=O)[C@@H](NC(=O)C(F)(F)F)C12CC3CC(CC(F)(C3)C1)C2` [Compound 9] as the compound, how does the IC50 [1] read?
Its IC50 is 25 nM.

With `CC(C)(C)[C@H](NC(=O)C(F)(F)F)C(=O)N1[C@H]2C[C@@H]([C@H]1C(=O)N[C@H](C#N)C[C@@H]1CCNC1=O)C1(CC1)C2` [Compound 11] as the compound, how does the AUC(0-t) ([2]; iv, 3 mg/kg, i.v. 3 mpk) read?
The AUC(0-t) was 1.45 µM·h.

And the clearance ([2]; iv, 3 mg/kg, i.v. 3 mpk)?
Its clearance is 68.5 mL/min/kg.

And the half-life ([2]; iv, 3 mg/kg, i.v. 3 mpk)?
Its half-life is 12 min.

And the Vd ([2]; iv, 3 mg/kg, i.v. 3 mpk, read-out: Vdss)?
Its Vd is 0.9 L/kg.

And the AUC(0-t) ([2]; po, 10 mg/kg, p.o. 10 mpk)?
The AUC(0-t) was 1.52 µM·h.

And the Tmax ([2]; po, 10 mg/kg, p.o. 10 mpk)?
The Tmax was 15 min.

What about the Cmax ([2]; po, 10 mg/kg, p.o. 10 mpk) of the same compound?
The Cmax was 1.85 µM.

And the AUC(0-t) ([3]; with Ritonavir 10 mpk)?
The AUC(0-t) was 28.7 µM·h.

What about the Tmax ([3]; with Ritonavir 10 mpk) of the same compound?
The Tmax was 30 min.

What about the Cmax ([3]; with Ritonavir 10 mpk at −12 h and 0 h) of the same compound?
The Cmax was 10.1 µM.

And the Kp at 0.25 h ([4]; lung, 0.25 h, given as x/1, read-out: Lung/plasma ratio at 0.25 h)?
Its Kp at 0.25 h is 5.5.

What about the Kp at 1 h ([4]; lung, 1 h, given as x/1, read-out: Lung/plasma ratio at 1 h) of the same compound?
Its Kp at 1 h is 3.2.

And the Kp at 6 h ([4]; lung, 6 h, given as x/1, read-out: Lung/plasma ratio at 6 h)?
The Kp at 6 h was 1.6.

What about the Kp at 6 h ([4]; lung, given as x/1, read-out: Lung/plasma ratio of AUC(0-6 h)) of the same compound?
The Kp at 6 h was 2.6.

And the concentration at 0.25 h ([4]; 30 mpk intragastric, lung, 0.25 h, read-out: Lung concentration at 0.25 h)?
Its concentration at 0.25 h is 15.8 µM.

What about the concentration at 1 h ([4]; 30 mpk intragastric, lung, 1 h, read-out: Lung concentration at 1 h) of the same compound?
The concentration at 1 h was 18.4 µM.

And the concentration at 6 h ([4]; 30 mpk intragastric, lung, 6 h, read-out: Lung concentration at 6 h)?
The concentration at 6 h was 7.85 µM.

And the AUC at 6 h ([4]; 30 mpk intragastric, lung, read-out: Lung AUC(0-6 h))?
The AUC at 6 h was 76.8 µM·h.

What about the AUC(0-t) at 6 h ([4]; 30 mpk intragastric, plasma) of the same compound?
Its AUC(0-t) at 6 h is 29.4 µM·h.

And the concentration at 0.25 h ([4]; 30 mpk intragastric, plasma, 0.25 h, read-out: Plasma concentration at 0.25 h)?
The concentration at 0.25 h was 2.86 µM.

And the concentration at 1 h ([4]; 30 mpk intragastric, plasma, 1 h, read-out: Plasma concentration at 1 h)?
The concentration at 1 h was 5.49 µM.

What about the concentration at 6 h ([4]; 30 mpk intragastric, plasma, 6 h, read-out: Plasma concentration at 6 h) of the same compound?
The concentration at 6 h was 4.88 µM.

Source: patent publication US20240158373A1, “RING-MODIFIED PROLINE SHORT PEPTIDE COMPOUND AND USE THEREOF” (FUJIAN AKEYLINK BIOTECHNOLOGY CO., LTD., priority 2021, published 2024)
